Assay: Study 202 fasting metabolic laboratory parameters
Format: in vivo, human
Text: All abnormalities in total cholesterol, LDL cholesterol, triglycerides, or glucose were Grade 1 or Grade 2.
Mean baseline values and changes from baseline in HbA1c, HOMA-IR, fasting LDL, fasting HDL, fasting total cholesterol, fasting total cholesterol/HDL ratio, and fasting triglycerides are shown in Table 36.

[1] = All CVC (N = 115), EFV (N = 28), through Week 48
[2] = CVC 100 mg (N = 58), through Week 48
[3] = CVC 200 mg (N = 57), through Week 48

CCCCOCCOc1ccc(-c2ccc3c(c2)/C=C(/C(=O)Nc2ccc([S@@+]([O-])Cc4cncn4CCC)cc2)CCCN3CC(C)C)cc1 [CVC, (S)-8-[4-(2-Butoxyethoxy)phenyl]-1-isobutyl-N-(4-{[(1-propyl-1H-imidazol-5-yl)methyl]sulfinyl}phenyl)-1,2,3,4-tetrahydro-1-benzazocine-5-carboxamide]
−0.30: HOMA-IR, mean change from baseline (All CVC, EFV, Week 4)
8 (7%) n (%): Fasting total cholesterol abnormality, any grade [1]
-8 mg/dL: Fasting triglycerides, mean change from baseline (CVC 100 mg, Week 4) | Fasting triglycerides, mean change from baseline (CVC 100 mg, Week 24)
4 (7%) n (%): Any graded (Grade 1-4) fasting laboratory abnormality [2] | Fasting LDL cholesterol abnormality, any grade [3]
0.09 % Hb: HbA1c, mean change from baseline (CVC 100 mg, Week 48)
−0.03 % Hb: HbA1c, mean change from baseline (All CVC, EFV, Week 4)
1 (<1%) n (%): Fasting triglycerides abnormality, Grade 2 [1] | Fasting triglycerides abnormality, any grade [1]
-5 mg/dL: Fasting triglycerides, mean change from baseline (All CVC, EFV, Week 4)
0 n (%): Any fasting laboratory abnormality, worst Grade 4 [1] | Fasting LDL cholesterol abnormality, Grade 3 [1] | Fasting LDL cholesterol abnormality, Grade 4 [1] | Fasting glucose (serum, high) abnormality, Grade 3 [1] | Fasting glucose (serum, high) abnormality, Grade 4 [1] | Fasting total cholesterol abnormality, Grade 3 [1] | Fasting total cholesterol abnormality, Grade 4 [1] | Fasting triglycerides abnormality, Grade 1 [1] | Fasting triglycerides abnormality, Grade 3 [1] | Fasting triglycerides abnormality, Grade 4 [1] | Any fasting laboratory abnormality, worst Grade 3 [2] | Any fasting laboratory abnormality, worst Grade 4 [2] | Fasting LDL cholesterol abnormality, Grade 3 [2] | Fasting LDL cholesterol abnormality, Grade 4 [2] | Fasting glucose (serum, high) abnormality, Grade 1 [2] | Fasting glucose (serum, high) abnormality, Grade 2 [2] | Fasting glucose (serum, high) abnormality, Grade 3 [2] | Fasting glucose (serum, high) abnormality, Grade 4 [2] | Fasting glucose (serum, high) abnormality, any grade [2] | Fasting total cholesterol abnormality, Grade 2 [2] | Fasting total cholesterol abnormality, Grade 3 [2] | Fasting total cholesterol abnormality, Grade 4 [2] | Fasting triglycerides abnormality, Grade 1 [2] | Fasting triglycerides abnormality, Grade 2 [2] | Fasting triglycerides abnormality, Grade 3 [2] | Fasting triglycerides abnormality, Grade 4 [2] | Fasting triglycerides abnormality, any grade [2] | Any fasting laboratory abnormality, worst Grade 3 [3] | Any fasting laboratory abnormality, worst Grade 4 [3] | Fasting LDL cholesterol abnormality, Grade 3 [3] | Fasting LDL cholesterol abnormality, Grade 4 [3] | Fasting glucose (serum, high) abnormality, Grade 3 [3] | Fasting glucose (serum, high) abnormality, Grade 4 [3] | Fasting total cholesterol abnormality, Grade 3 [3] | Fasting total cholesterol abnormality, Grade 4 [3] | Fasting triglycerides abnormality, Grade 1 [3] | Fasting triglycerides abnormality, Grade 3 [3] | Fasting triglycerides abnormality, Grade 4 [3]
6 (5%) n (%): Fasting LDL cholesterol abnormality, any grade [1]
decrease: change in fasting total cholesterol (mainly LDL cholesterol) (CVC 100 mg and 200 mg, through Week 48)
−0.04 % Hb: HbA1c, mean change from baseline (CVC 100 mg, Week 12)
−0.06 % Hb: HbA1c, mean change from baseline (All CVC, EFV, Week 12)
5 (4%) n (%): Fasting glucose (serum, high) abnormality, any grade [1] | Fasting total cholesterol abnormality, Grade 1 [1]
3 (3%) n (%): Fasting LDL cholesterol abnormality, Grade 1 [1] | Fasting LDL cholesterol abnormality, Grade 2 [1] | Fasting glucose (serum, high) abnormality, Grade 1 [1] | Fasting total cholesterol abnormality, Grade 2 [1]
−0.08 % Hb: HbA1c, mean change from baseline (CVC 200 mg, Week 4) | HbA1c, mean change from baseline (CVC 200 mg, Week 12)
0.01 % Hb: HbA1c, mean change from baseline (CVC 100 mg, Week 4)
-2 mg/dL: Fasting triglycerides, mean change from baseline (CVC 200 mg, Week 4)
2 (2%) n (%): Fasting glucose (serum, high) abnormality, Grade 2 [1]
0.10 % Hb: HbA1c, mean change from baseline (All CVC, EFV, Week 48) | HbA1c, mean change from baseline (CVC 200 mg, Week 48)
5 (9%) n (%): Fasting glucose (serum, high) abnormality, any grade [3] | Fasting total cholesterol abnormality, any grade [3]
16 (14%) n (%): Any graded (Grade 1-4) fasting laboratory abnormality [1]
1 (2%) n (%): Any fasting laboratory abnormality, worst Grade 2 [2] | Fasting LDL cholesterol abnormality, Grade 1 [2] | Fasting LDL cholesterol abnormality, Grade 2 [2] | Fasting triglycerides abnormality, Grade 2 [3] | Fasting triglycerides abnormality, any grade [3]
6 (11%) n (%): Any fasting laboratory abnormality, worst Grade 1 [3] | Any fasting laboratory abnormality, worst Grade 2 [3]
2 (4%) n (%): Fasting LDL cholesterol abnormality, Grade 1 [3] | Fasting LDL cholesterol abnormality, Grade 2 [3] | Fasting glucose (serum, high) abnormality, Grade 2 [3] | Fasting total cholesterol abnormality, Grade 1 [3]
3 (5%) n (%): Any fasting laboratory abnormality, worst Grade 1 [2] | Fasting total cholesterol abnormality, Grade 1 [2] | Fasting total cholesterol abnormality, any grade [2] | Fasting glucose (serum, high) abnormality, Grade 1 [3] | Fasting total cholesterol abnormality, Grade 2 [3]
2 (3%) n (%): Fasting LDL cholesterol abnormality, any grade [2]
12 (21%) n (%): Any graded (Grade 1-4) fasting laboratory abnormality [3]
-9 mg/dL: Fasting total cholesterol, mean change from baseline (CVC 200 mg, Week 48)
0.06 % Hb: HbA1c, mean change from baseline (All CVC, EFV, Week 24) | HbA1c, mean change from baseline (CVC 100 mg, Week 24) | HbA1c, mean change from baseline (CVC 200 mg, Week 24)
